Data published in patent publication US20230190851A1, “PLANT COMPOUNDS FOR TREATING ALZHEIMER'S DISEASE” (RRW B.V., priority 2020, published 2023).

Tested on: C. elegans nematode strain with inducible amyloid-β accumulation (CL4176)
Assay: Alzheimer's disease paralysis assay, C. elegans strain with inducible amyloid-β accumulation
Assay type: in vivo
Settings: strain CL4176, heat shock 25° C., counted approximately every 24 h; combination effect after 71 h, persisted for 95 h
From the text: These strains accumulate amyloid-β peptides that form plaques in the nematodes and lead to paralysis of the animals. In certain strains, such as strain CL4176, Aβ accumulation occurs only in response to heat shock. Thus, the Alzheimer's disease pattern is inducible in these strains. The number of paralyzed nematodes after a certain period of time following induction of Aβ accumulation indicates the extent of Alzheimer's disease. Thus, the effect of certain substances to which the nematodes are exposed on the number of paralyzed animals is a measure of the anti-Alzheimer effect of these substances.
Nematodes of strain CL4176 were synchronized at the young larval stage and allowed to grow to the L4 stage on normal growth medium for 72 h at 16° C. Then the nematodes were exposed to the test substance and the temperature was increased to 25° C. This heat shock induced Aβ accumulation, simulating the onset of Alzheimer's disease. Approximately every 24 h, the number of animals that were still mobile and those that were paralyzed as a result of Aβ accumulation was determined.

C=C(C)[C@@H]1CCC(C)=C[C@H]1c1c(O)cc(CCCCC)cc1O [CBD, cannabidiol]
number of mobile / paralyzed animals after induction of Aβ accumulation: only little effect
